Here are results for 49 sequences from the OligoGym collection.

For this data set, the target named is SOD1. The note with it: ASO.

Several values for one entry are separate records, joined by “and”; a condition that tells them apart may be missing. Equal entries are not always repeated. After the bases stand the sugars from the 5' end (letter, count) and the backbone: PS all phosphorothioate, else s phosphorothioate and o phosphodiester by linkage. Methylation of C is not given here. e = 2'-O-(2-methoxyethyl) (MOE); k = constrained ethyl (cEt); d = 2'-deoxy (DNA)

“TCTTCCAAGTGATCATA (sugars e2 k2 d8 k2 e3, PS)”: under “HepG2, 5 µM”, the target mRNA inhibition is 33%.

“TCTGACAAGTTTAATAC (sugars e2 k2 d9 k2 e2, PS)” had a target mRNA inhibition (HepG2, 5 µM) of 20%.

For the sequence “GTGTTTAATGTTTATCAGGA (sugars e5 d10 e5, PS)”, the target mRNA inhibition amounted to 18% (HepG2, 0.1875 µM); 45% (HepG2, 0.75 µM); 74% (HepG2, 3 µM); 73% (HepG2, 5 µM); 92% (HepG2, 12 µM).

“TTTCTACAGCTAGCAGG (sugars e2 k2 d9 k2 e2, PS)”: the target mRNA inhibition was determined as 26% (HepG2, 0.1875 µM); 68% (HepG2, 0.75 µM); 89% (HepG2, 3 µM); 84% (HepG2, 4 µM); 95% (HepG2, 12 µM).

For “ATACATTTCTACAGCT (sugars ekddddddddekekee, linkages s1 o1 s8 o3 s2)”, the target mRNA inhibition came to 0% (A431, 0.12 µM); 9% (A431, 0.6 µM); 0% (A431, 3 µM); 25% (A431, 15 µM); 43% (HepG2, 0.222 µM); 58% (HepG2, 0.667 µM). Moreover, the target mRNA inhibition (HepG2, 2 µM) amounted to 79% and the target mRNA inhibition (HepG2, 6 µM) is 91%.

The sequence “GAATGTTTATTGGGCGA (sugars e3 k2 d7 k2 e3, PS)” returned a target mRNA inhibition (HepG2, 3 µM) of 14%.

The sequence “CCCACTCTGGCCCCAAA (sugars e3 k2 d7 k2 e3, PS)” returned a target mRNA inhibition (HepG2, 3 µM) of 15%.

On to “TCATTTCCACCTTTGCC (sugars e3 k2 d7 k2 e3, PS)”, for which, where the note is “HepG2, 3 µM”, the target mRNA inhibition came to 57%.

Turning to “TCTGTGATTTAAGTCTGGCA (sugars e5 d10 e5, PS)”, the target mRNA inhibition (HepG2, 5 µM) is 44%.

On to “ACAGTGTTTAATGTTTA (sugars e3 k2 d7 k2 e3, PS)”, for which the target mRNA inhibition is 35% (HepG2, 0.1875 µM); 71% (HepG2, 0.75 µM); 56% and 79% (HepG2, 3 µM); 82% (HepG2, 12 µM).

As to “CCAATTACACCACAAGC (sugars e2 k2 d9 k2 e2, PS)”, the target mRNA inhibition runs as follows: (HepG2, 0.1875 µM) 7%; (HepG2, 0.75 µM) 32%; (HepG2, 3 µM) 77%; (HepG2, 4 µM) 73%; (HepG2, 12 µM) 96%.

With “GCCCTTCAGCACGCACA (sugars e2 k2 d8 k2 e3, PS)”, the target mRNA inhibition is, setting by setting: (HepG2, 0.1875 µM) 8%; (HepG2, 0.75 µM) 38%; (HepG2, 3 µM) 74%; (HepG2, 4 µM) 75%; (HepG2, 12 µM) 96%.

“ACGACGCAAACCAGCACCCC (sugars e5 d10 e5, PS)” came in with a target mRNA inhibition (HepG2, 4 µM) of 30%.

Turning to “AGTGTTTAATGTTTATC (sugars e2 k2 d8 e5, linkages s1 o2 s9 o2 s2)”, the target mRNA inhibition by setting is: (A431, 0.062 µM) 16%; (A431, 0.185 µM) 43%; (A431, 0.556 µM) 65%; (A431, 1.667 µM) 68%; (A431, 5 µM) 79%; (A431, 15 µM) 83%. The target mRNA inhibition worked out at 33% (SH-SY5Y, 0.062 µM); 10% (SH-SY5Y, 0.185 µM); 43% (SH-SY5Y, 0.556 µM); 61% (SH-SY5Y, 1.667 µM); 81% (SH-SY5Y, 5 µM); 77% (SH-SY5Y, 15 µM).

On to “ACCTGCACTGGTACAGCCTG (sugars e5 d10 e5, PS)”, for which, under “HepG2, 5 µM”, the target mRNA inhibition is 46% and 48%.

Regarding “GGGCGATCCCAATTACA (sugars e3 k2 d7 k2 e3, PS)”, where the note is “HepG2, 3 µM”, the target mRNA inhibition was 18%.

Consider “TTCACAGGCTTGAATGA (sugars e2 k2 d8 k2 e3, PS)”, for which the target mRNA inhibition (HepG2, 5 µM) is 20%.

With “GACCACCAGTGTGCGGCCAA (sugars e5 d10 e5, PS)”, the target mRNA inhibition (HepG2, 5 µM) was found to be 16%.

Turning to “AGCACCCCGTCTCCGCGACT (sugars e5 d10 e5, PS)”, the target mRNA inhibition (HepG2, 4 µM) came out at 24%.

On to “CCAGCACCCCGTCTCCGCGA (sugars e5 d10 e5, PS)”, for which the target mRNA inhibition (HepG2, 4 µM) came to 38%.

On to “TACAGTGTTTAATGTTTA (sugars e5 d8 e5, linkages s1 o3 s9 o2 s2)”, for which the target mRNA inhibition amounted to 3% (A431, 0.12 µM); 0% (A431, 0.6 µM); 1% (A431, 3 µM); 20% (A431, 15 µM); 13% (HepG2, 0.222 µM); 46% (HepG2, 0.667 µM). Besides, the target mRNA inhibition (HepG2, 2 µM) was determined as 70% and the target mRNA inhibition (HepG2, 6 µM) was 57%.

Regarding “TCAGCAGTCACATTGCCCAA (sugars e5 d10 e5, PS)”, the target mRNA inhibition (HepG2, 5 µM) is 52% and 42%.

In turn, “CACTTTTAAGATTACAG (sugars e2 k2 d9 k2 e2, PS)” yielded a target mRNA inhibition (HepG2, 5 µM) of 49%.

As for “TACAGCTAGCAGGATAA (sugars e2 k2 d8 k2 e3, PS)”, the target mRNA inhibition was 35% (HepG2, 0.1875 µM); 70% (HepG2, 0.75 µM); 90% (HepG2, 3 µM); 85% and 77% (HepG2, 4 µM); 91% and 97% (HepG2, 12 µM).

With “CAGGATACATTTCTACA (sugars e2 k2 d8 k2 e3, PS)”, the target mRNA inhibition turned out to be 30% (HepG2, 0.1875 µM); 62% (HepG2, 0.75 µM); 81% (HepG2, 3 µM); 79% (HepG2, 4 µM); 94% (HepG2, 12 µM).

Turning to “TATAGGCCAGACCTCCGCGC (sugars e5 d10 e5, PS)”, the target mRNA inhibition (HepG2, 4 µM) was 40%.

The sequence “CCAAGGGAATGTTTATT (sugars e2 k2 d9 k2 e2, PS)” registered a target mRNA inhibition (HepG2, 4 µM) of 52%.

For the sequence “AAGTCACACAATTACAC (sugars e2 k2 d9 k2 e2, PS)”, for the setting “HepG2, 5 µM”, the target mRNA inhibition is 37%.

As for “CTGCACTGGGCCGTCGCCCT (sugars e5 d10 e5, PS)”, the target mRNA inhibition (HepG2, 4 µM) was found to be 24%.

Consider “GTTTAATGTTTATCAGG (sugars e2 k2 d8 k2 e3, PS)”, for which the target mRNA inhibition turned out to be 55% (HepG2, 0.1875 µM); 78% (HepG2, 0.75 µM); 87% (HepG2, 3 µM); 87% (HepG2, 5 µM); 93% (HepG2, 12 µM).

For the sequence “ACAGTGTTTAATGTTTAT (sugars e5 d8 e5, linkages s1 o3 s9 o2 s2)”, the target mRNA inhibition was determined as 0% (A431, 0.12 µM); 18% (A431, 0.6 µM); 26% (A431, 3 µM); 45% (A431, 15 µM); 19% (HepG2, 0.222 µM); 30% (HepG2, 0.667 µM). Moreover, the target mRNA inhibition is, setting by setting: (HepG2, 2 µM) 46% and 50%; (HepG2, 6 µM) 70%.

Under “HepG2, 4 µM”, “TTCCGAGGACTGCAACGGAA (sugars e5 d10 e5, PS)” yielded a target mRNA inhibition of 5%.

The sequence “ATTGATGATGCCCTGCACTG (sugars e5 d10 e5, PS)” registered a target mRNA inhibition (HepG2, 4 µM) of 8%.

“CACAAGCCAAACGACTTCCA (sugars e5 d10 e5, PS)” displayed a target mRNA inhibition (HepG2, 5 µM) of 47%.

The sequence “CAGCAGTCACATTGCCC (sugars e3 k2 d7 k2 e3, PS)” returned a target mRNA inhibition (HepG2, 3 µM) of 7%.

Turning to “TTTAATGTTTATCAGG (sugars ekddddddddekekee, linkages s1 o1 s8 o3 s2)”, the target mRNA inhibition by setting is: (A431, 0.12 µM) 20%; (A431, 0.6 µM) 5%; (A431, 3 µM) 12%; (A431, 15 µM) 33%; (HepG2, 0.222 µM) 21%; (HepG2, 0.667 µM) 38%. For the same sequence, the target mRNA inhibition reads like this: (HepG2, 2 µM) 58%; (HepG2, 6 µM) 81%.

“TCCAACATGCCTCTCTT (sugars e3 k2 d7 k2 e3, PS)” gave a target mRNA inhibition (HepG2, 3 µM) of 0%.

Sequence “ACAGGTCATTGAAACAG (sugars e3 k2 d7 k2 e3, PS)” gave a target mRNA inhibition (HepG2, 3 µM) of 14%.

“GCCATACAGGGTTTTTA (sugars e3 k2 d7 k2 e3, PS)” registered a target mRNA inhibition (HepG2, 3 µM) of 11%.

“AAATCAGTTTCTCACTACAG (sugars e5 d10 e5, PS)” registered a target mRNA inhibition (HepG2, 5 µM) of 0%.

Take “TTCTACAGCTAGCAGGATAA (sugars e5 d10 e5, PS)”: the target mRNA inhibition (HepG2, 2 µM) turned out to be 50%.

Consider “TAATGTTTATCAGGAT (sugars kekeddddddddekek, linkages s1 o3 s8 o1 s2)”, for which the target mRNA inhibition is, setting by setting: (A431, 0.12 µM) 0%; (A431, 0.6 µM) 15%; (A431, 3 µM) 17%; (A431, 15 µM) 48%.

Regarding “TTCTGCTCGAAATTGAT (sugars e3 k2 d7 k2 e3, PS)”, the target mRNA inhibition (HepG2, 3 µM) turned out to be 18%.

“GACTACATCCAAGGGAA (sugars e2 k2 d9 k2 e2, PS)” displayed a target mRNA inhibition (HepG2, 4 µM) of 57%.

As to “TCCTTCTGCTCGAAATT (sugars e3 k2 d7 k2 e3, PS)”, the target mRNA inhibition (HepG2, 3 µM) stood at 14%.

“AGGGTTTTTATTCACAG (sugars e3 k2 d7 k2 e3, PS)” returned a target mRNA inhibition (HepG2, 3 µM) of 24%.

As for “TAAGTGCCATACAGGGT (sugars e2 k2 d8 k2 e3, PS)”, the target mRNA inhibition (HepG2, 5 µM) turned out to be 26%.

Regarding “TTAATGTTTATCAGGAT (sugars ekekddddddddeeeee, linkages s1 o2 s9 o2 s2)”, the target mRNA inhibition runs as follows: (A431, 0.062 µM) 6%; (A431, 0.185 µM) 21%; (A431, 0.556 µM) 44%; (A431, 1.667 µM) 76%; (A431, 5 µM) 68%; (A431, 15 µM) 77%. For the same sequence, the target mRNA inhibition runs as follows: (SH-SY5Y, 0.062 µM) 0%; (SH-SY5Y, 0.185 µM) 0%; (SH-SY5Y, 0.556 µM) 34%; (SH-SY5Y, 1.667 µM) 61%; (SH-SY5Y, 5 µM) 81%; (SH-SY5Y, 15 µM) 90%.

Under “HepG2, 3 µM”, “ACTACATCCAAGGGAAT (sugars e3 k2 d7 k2 e3, PS)” showed a target mRNA inhibition of 7%.
